Assay results published in BindingDB's records for doi:10.1016/0960-894X(95)00287-4 (1995).

What was measured:
[1] = Inhibitory activity against Opioid receptor kappa1 binding to bovine striatal membrane
[2] = Inhibitory activity against Opioid receptor delta 1 binding to bovine striatal membrane

Compound	IC50 [1]	IC50 [2]
C[C@@]12Oc3c(O)ccc4c3[C@@]13CCN(CC1CC1)[C@H](C4)[C@]3(NC(=O)CSSCC(=O)N[C@@]13CCC(=O)[C@]4(C)Oc5c(O)ccc6c5[C@@]41CCN(CC1CC1)[C@@H]3C6)CCC2=O	7.7 nM	5.3 nM
CN1CC[C@]23c4c5ccc(O)c4O[C@@]2(C)C(=O)CC[C@@]3(NC(=O)CSSCC(=O)N[C@@]23CCC(=O)[C@]4(C)Oc6c(O)ccc7c6[C@@]42CCN(C)C3C7)C1C5 [MET-TAMO and N-CPM-MET-TAMO analogue]	89 nM	52 nM
